Read-outs that look alike come from different tables or passages of the source.

This test concerns human peripheral blood mononuclear cells (PBMCs). Description: ELISA assay of immunocyte activator: induction of IFN-γ in human PBMCs. It counts as cell-based. The note with it: Homo sapiens, PBMC, 24 h, 37 °C, read-out: EC50 IFN-γ ratio (inducing human PBMCs to produce IFN-γ). The procedure: The immune activity of each compound is represented by the function of inducing human peripheral blood mononuclear cells (PBMCs) to produce the immune cytokine IFN-γ by, and the EC50 values thereof are shown in Table 3.
• 1) Peripheral blood samples from healthy human volunteer were collected into heparin anticoagulant tubes to reach 5 mL of fresh blood, and PBS was added at a ratio of 1:1 to dilute the blood (2 mL+2 mL in conventional blood collection tubes). • 2) 5 mL of lymphocyte separation medium was put in a 15 mL sterile centrifuge tube for use. • 3) The diluted blood was aspirated and slowly added from 1 cm above the separation medium along the tube wall, so that the diluted blood overlaid the separation medium and formed a distinct interface therewith. • 4) The centrifuge tube was centrifuged at 2000 rpm at room temperature for 20 min. Now five layers formed in the centrifuge tube: the top layer was plasma layer, and the layer between the plasma layer and the lymphocyte separation medium was the lymphocyte layer as a white film. • 5) The mononuclear cell layer as a white film in the middle was aspirated carefully and mononuclear cells were aspirated as many as possible. The mononuclear cells were washed by more than 5 volumes of PBS twice, and each time, the mononuclear cells were centrifuged at 1500 rpm for 10 min. • 6) The supernatant was removed, then 1 mL of 1640 medium was added and mixed uniformly. A small amount of the mixture was taken for cell counting.
The prepared PBMCs were plated in a 96-well plate (Costar, 3894) (2×10^5 cells per well). Each compound in Table 3 was taken and added into the wells with plated cells at ten concentrations with uniform gradient distribution (0.0001-10 μM, diluted with […] medium containing […]).
Background: In an ELISA, binding on a coated surface is turned into a signal by an enzyme label.

The mark [1] stands for this setting: Note a: sample pretreated with human liver microsomal enzyme, 2 h.

With `CCCCOc1nc(N)c2[nH]c(=O)n(Cc3cn(CCOCCOCCOCC(=O)N[C@H](CCCCN=[N+]=[N-])C(=O)O)nn3)c2n1` [Compound 102-N3], the EC50 (no pretreatment marked) is 180 nM.

In the case of `CC[C@H](C)[C@@H]([C@@H](CC(=O)N1CCCC1[C@H](OC)[C@@H](C)C(=O)N[C@H](C)[C@@H](O)c1ccccc1)OC)N(C)C(=O)[C@@H](NC(=O)[C@H](C(C)C)N(C)C(=O)OCc1ccc(NC(=O)[C@H](CCCNC(N)=O)NC(=O)[C@@H](NC(=O)C(CCCCc2cn(CCOCCOCCOCCNC(=O)CCN3C(=O)C=CC3=O)nn2)NC(=O)CCC(=O)NCc2ccc(Cn3c(=O)[nH]c4c(N)nc(OCCOC)nc43)cc2)C(C)C)cc1)C(C)C` (stereo partly drawn) [Compound K1], the EC50 (no pretreatment marked) was found to be 100 nM.

Regarding `COCCOc1nc(N)c2[nH]c(=O)n(Cc3ccc(CNC(=O)CCC(=O)N[C@@H](CCCCNC(=O)OCc4ccc(NC(=O)[C@H](CCCNC(N)=O)NC(=O)[C@@H](NC(=O)CCCCCN5C(=O)C=CC5=O)C(C)C)cc4)C(=O)NCCOCCOCCOCCOCCNC(=O)CCC(=O)N4Cc5ccccc5C#Cc5ccccc54)cc3)c2n1` [Compound K2], the EC50 (no pretreatment marked) was found to be 50 nM.

Turning to `COCCOc1nc(N)c2[nH]c(=O)n(Cc3ccc(CNC(=O)CCC(=O)NC(CCCCc4cn(CCOCCOCCOCCNC(=O)CCN5C(=O)C=CC5=O)nn4)C(=O)N[C@H](C(=O)N[C@@H](CCCNC(N)=O)C(=O)Nc4ccc(COC(=O)NC[C@H](C)c5ccc(-c6c(O)cc(C)c7[nH]c(=O)c8sccc8c67)cc5)cc4)C(C)C)cc3)c2n1` (stereo partly drawn) [Compound K3], the EC50 (no pretreatment marked) came out at 200 nM.

As for `CC[C@H](C)[C@@H]([C@@H](CC(=O)N1CCCC1[C@H](OC)[C@@H](C)C(=O)N[C@H](C)[C@@H](O)c1ccccc1)OC)N(C)C(=O)[C@@H](NC(=O)[C@H](C(C)C)N(C)C(=O)OCc1ccc(NC(=O)[C@H](CCCNC(N)=O)NC(=O)[C@@H](NC(=O)C(CCCCc2cn(CCOCCOCCOCCC(=O)O)nn2)NC(=O)CCC(=O)NCc2ccc(Cn3c(=O)[nH]c4c(N)nc(OCCOC)nc43)cc2)C(C)C)cc1)C(C)C` (stereo partly drawn) [Compound K5], the EC50 (no pretreatment marked) worked out at 130 nM.

For the compound `CCCCOc1nc(N)c2[nH]c(=O)n(Cc3cn(CCOCCOCCOCC(=O)N[C@H](CCCCNC(=O)OCc4ccc(NC(=O)[C@H](CCCNC(N)=O)NC(=O)[C@@H](NC(=O)CCCCCN5C(=O)C=CC5=O)C(C)C)cc4)C(=O)NCCOCCOCCOCCOCCNC(=O)CCC(=O)N4Cc5ccccc5C#Cc5ccccc54)nn3)c2n1` [Compound K7], the EC50 (no pretreatment marked) was determined as 45 nM.

As for `CCCCOc1nc(N)c2[nH]c(=O)n(Cc3cn(CCOCCOCCOCC(=O)N[C@H](CCCCc4cn(COCCOCCOCCOCCN5C(=O)C=CC5=O)nn4)C(=O)N[C@H](C(=O)N[C@@H](CCCNC(N)=O)C(=O)Nc4ccc(COC(=O)NC[C@H](C)c5ccc(-c6c(O)cc(C)c7[nH]c(=O)c8sccc8c67)cc5)cc4)C(C)C)nn3)c2n1` [Compound K8], under “no pretreatment marked”, the EC50 stood at 110 nM.

`CCCCOc1nc(N)c2c(n1)n(Cc1cn(CCOCCOCCOCCNC(=O)OCc3ccc(NC(=O)[C@H](CCCNC(N)=O)NC(=O)[C@@H](NC(=O)CCCCC(=O)O)C(C)C)cc3)nn1)c(=O)n2C1CCCO1` (stereo partly drawn) [Compound K9]: the EC50 under setting [1] amounted to 9000 nM.

For `COCCOc1nc(N)c2c(n1)n(Cc1ccc(CNC(=O)CCc3cn(CCOCCOCCOCCNC(=O)OCc4ccc(NC(=O)[C@H](CCCNC(N)=O)NC(=O)[C@@H](NC(=O)CCCCCN5C(=O)C=CC5=O)C(C)C)cc4)nn3)cc1)c(=O)n2C(=O)N1CCN(C)CC1` [Compound K10], the EC50 under setting [1] turned out to be 210 nM.

For the compound `COCCOc1nc(N)c2c(n1)n(Cc1ccc(CNC(=O)CCc3cn(CCOCCOCCOCCNC(=O)OCc4ccc(NC(=O)[C@H](CCCNC(N)=O)NC(=O)[C@@H](NC(=O)CCCCC(=O)O)C(C)C)cc4)nn3)cc1)c(=O)n2C1CCCO1` (stereo partly drawn) [Compound K12], under setting [1], the EC50 turned out to be 200 nM.

Take `CCCCOc1nc(N)c2c(n1)c(Cc1ccc3c(c1)CN(C(=O)/C=C/C(=O)c1ccc(OC)cc1)CC3)cn2C(=O)OCc1ccc(NC(=O)[C@H](CCCNC(N)=O)NC(=O)[C@@H](NC(=O)CCOCCOCCOCCOCCN2C(=O)C=CC2=O)C(C)C)cc1` [Compound K13]: for the setting “Note c: sample pretreated with Cathepsin-B (10 μg) in PBS, room temperature, 3 h”, the EC50 is 110 nM.

Take `CCOC(=O)NC(=O)n1c(=O)n(Cc2ccc(CNC(=O)CCc3cn(CCOCCOCCOCCNC(=O)CCN4C(=O)C=CC4=O)nn3)cc2)c2nc(OCCOC)nc(N)c21` [Compound K14]: the EC50 under setting [1] stood at 10 nM.

The values are drawn from US20260325661A1, “ANTIBODY-CONJUGATED IMMUNO-ACTIVATING SMALL MOLECULE COMPOUND, AND USE” (SHENZHEN CONJUGENIX PHARMACEUTICAL TECHNOLOGY CO., LTD, priority 2023, published 2026).
